These are literature values, as cited in US7498130B2, “Method of reducing viral load” (Massachusetts General Hospital, priority 2003, dated 2009).

The test system of data set [1] is HIV. To be noted: infected cells.
For data set [2] the following is noted: in vivo.

As for antithrombin III [ATIII], the “lowering HIV viral loads” value in data set [1] is “inactive”. In addition, in data set [2], the overall elimination half-life is 18.6 h.
